These results are taken from patent US20040180855A1, “Methods of treating thrombosis with reduced risk of increased bleeding times” (priority 2003, published 2004).

Each structure is given as a SMILES string.

The test system of data set [1] is FeCl2-induced carotid artery thrombosis. In words: Arterial thrombosis model (FeCl2 carotid artery). The data set is classed as in vivo, rat. Conditions: i.v. 12 mg/kg plus 12 mg/kg/hr. On the procedure: General Surgical Preparation Male Sprague Dawley rats (310 to 390 g) were anesthetized with Na-pentobarbital (50 mg/kg i.p.). The left jugular vein was cannulated with PE-50 tubing for drug administration, and the trachea was intubated with PE-205 tubing to ensure airway patency. In some animals, a carotid artery was cannulated with PE-50 tubing to obtain blood samples, and a procedure was followed as described in Schumacher et al., “Comparison of Thrombin Active-Site and Exosite Inhibitors and Heparin in Experimental Models of Arterial and Venous Thrombosis and Bleeding,” J. Pharmacol. Exp. Therap., Vol. 267 (1993), at pp. 1237-42; Schumacher et al., Effects of Antithrombotic Drugs in a Rat Model of Aspirin-Insensitive Arterial Thrombosis, Thromb Haemostasis, Vol. 69 (1993), at pp. 509-514; or Schumacher et al., Effect of a Novel Thrombin Active-Site Inhibitor on Arterial and Venous Thrombosis, Eur J Pharmacol., Vol. 259 (1994), at pp. 165-171, each of which is incorporated herein by reference. […]
Arterial Thrombosis The left carotid artery was exposed and a piece of parafilm “M” (American National Can, Greenwich, Conn.) was inserted under the vessel. […] Carotid blood flow (CBF) was monitored continuously on a TA3800 physiologic recorder (Gould, Cleveland, Ohio). Total CBF was determined and normalized as percent of baseline (0 min) flow over 60 min to provide a measure of average blood flow during thrombus formation.
(§1) Statistical Analysis In the venous and arterial thrombosis procedures, treatment effects on thrombus weight, baseline blood flow, and average blood flow during thrombosis were determined by analysis of variance with Dunnett's test for comparison to the vehicle group. […] Treatment effects on bleeding times were determined by analysis of variance with Dunnett's test for comparison to the vehicle group. Both post-treatment and pre-treatment bleeding times and the relative bleeding time increases in sec were analyzed. […]

Data set [2] concerns renal cortex bleeding time. In words: Renal cortex bleeding time (RCBT) model. Conditions: rat, i.v. 12+12 and 24+24 mg/kg+mg/kg/hr, pre- vs post-treatment, FIG. 5. The data set is classed as in vivo. On the procedure: (§2) Experimental Bleeding Time Two models of bleeding time were performed, namely, a renal cortex bleeding model (using template incision of the renal cortex), and a mesenteric artery bleeding model (using severance of small mesenteric arteries).
In the renal cortex bleeding time (RCBT) model, both kidneys were exposed by a midline abdominal incision, and the renal capsules were removed to expose the bare renal cortex which was superfused with Ringer's solution maintained at 37° C. […] While observing under 3×-binocular magnifier, the time in sec from injury until bleeding stopped was recorded. Three bleeding times were determined on the right kidney before, and on the left kidney 15 min after, the start of test article infusion. […]
as §1

Data set [3] has as its system mesenteric artery bleeding time. In words: Mesenteric artery bleeding time (MABT) model. Conditions: rat, i.v. 12+12 and 24+24 mg/kg+mg/kg/hr, pre- vs post-treatment, FIG. 6. The data set is classed as in vivo. On the procedure: as §2
In the mesenteric artery bleeding time (MABT) model, the abdomen was opened via a midline incision and the small intestine was exteriorized. The jejunum was exposed, held in place with clamps and superfused with Ringer's solution maintained at 37° C. Small arteries that branch perpendicular to the mesenteric artery and course over the surface of the jejunum were observed through an SZH10 stereomicroscope (Olympus Corp., Lake Success, N.Y.). These vessels were punctured with a 30-gauge hypodermic needle and the time in sec from puncturing until bleeding stopped was recorded. Bleeding times were determined in 3-5 arteries before administration of test article and in 3-5 arteries 20 min after the start of test article infusion. […]
Statistical Analysis In the venous and arterial thrombosis procedures, treatment effects on thrombus weight, baseline blood flow, and average blood flow during thrombosis were determined by analysis of variance with Dunnett's test for comparison to the vehicle group. […] Treatment effects on bleeding times were determined by analysis of variance with Dunnett's test for comparison to the vehicle group. […]

Data set [4] relates to rat plasma (ex vivo PT). In words: Ex vivo clotting time PT. The class given is in vivo. Conditions: loading plus sustaining i.v. infusion. On the procedure:
Ex Vivo Clotting Times Ex vivo clotting time assays were used to determine the level of anticoagulation achieved in the thrombosis and bleeding time procedures, described above. A small organic compound for inhibiting Factor XIa was administered at doses (mg/kg+mg/kg/hr) of 0.5+0.5 (n=3), 2+2 (n=4), 6+6 (n=3), 12+12 (n=3) and 24+24 (n=10). Carotid artery blood (0.6 mL drawn into 1/10 volume of 3.8% Na-citrate) was sampled before (0 min control) and at 5, 15, 30, 60 and 90 min after the start of the compound infusion. The APTT was determined in freshly prepared plasma from each sample using the standard procedure for Dade Actin FSL reagent (Baxter Healthcare Corp., Miami, Fla.). The PT was determined in some animals from the 6+6 (n=3), 12+12 (n=3) and 24+24 (n=2) dose groups using Dade Thromboplastin●C reagent.
Plasma was sampled before (0 min control) and after the infusion, at intervals of 5, 15, 30, 60 and 90 min after initiating the infusion. Average APTT increases over the 15-90 min period, an interval most applicable to thrombosis and bleeding time protocols, were calculated. Control APTT values averaged 19.9±1.3 seconds overall. The PT was unaltered as expected from in vitro results. […] The range of efficacious doses in venous and arterial thrombosis (2+2, 6+6, 12+12; mg/kg+mg/kg/hr) produced an APTT increase of about 2.8 times control.

In the case of `CC(C)(C)NC(=O)N1CCN(C(=O)N2C(=O)[C@H](CCCNC(=N)N)[C@H]2C(=O)O)CC1` [Example 4], the “decrease in thrombus weight” value in data set [1] (rat carotid artery, FIG. 2) is 73%. Further, in data set [1] (rat), the “average blood flow during thrombosis and vessel patency” value is “improvement”; the “effect on FeCl2-induced carotid artery thrombosis (carotid blood flow, FIG. 1)” value was “prevented”. Moreover, the “effect on renal cortex bleeding times” value in data set [2] was “no effect”. The “effect on mesenteric artery bleeding times” value in data set [3] was “no effect”. The “effect on ex vivo PT” value in data set [4] is recorded as “unaltered”.
